{
  "source": "paper PMC7382501",
  "about": "(Nature Communications, 2020)",
  "key": {"FasRF123A": {"molecular_target": "FasRF123A (Mycobacterium tuberculosis, UniProt O05858, F123A)", "type": "binding"}, "FasRL106F": {"molecular_target": "FasRL106F (Mycobacterium tuberculosis, UniProt O05858, L106F)", "type": "biochemical"}, "FasRLVL": {"molecular_target": "FasRLVL (Mycobacterium tuberculosis, UniProt O05858, L106F/L185F/V163F)", "type": "biochemical"}},
  "data": [
    {"compound": "CCCCCCCCCCCCCCCCCCCC(=O)SCCNC(=O)CCNC(=O)[C@H](O)C(C)(C)COP(=O)(O)OP(=O)(O)OC[C@H]1O[C@@H](n2cnc3c(N)ncnc32)[C@H](O)[C@@H]1OP(=O)(O)O", "note": "[C20-CoA, arachidoyl-CoA]", "values": [
      {"measurement": "SPR association of FasRF123A to C20-CoA compared with FasRwt", "setting": "FasRF123A", "result": "comparable association kinetics"},
      {"measurement": "acyl-CoA concentration at which the protein–DNA complex dissociates", "setting": "FasRL106F", "result": "> 4", "unit": "µM"},
      {"measurement": "protein–DNA complex in the presence of ligand", "setting": "FasRLVL", "result": "remained bound to DNA"}
    ]}
  ]
}
